From PubChem BioAssay (NCI)
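Exposure lasted 48 hours, with cells grown in 96-well plates and compounds tested at five concentrations. GI50 = concentration required for 50% inhibition of growth. TGI: total growth inhibition.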

Experiments:
Test in all cases: DTP human tumour cell line panel, 48 h
[1] = test system: HCC-2998 colon
[2] = test system: K-562 leukemia
[3] = test system: MOLT-4 leukemia
[4] = test system: OVCAR-3 ovarian
[5] = test system: OVCAR-5 ovarian
[6] = test system: SF-295 CNS
[7] = test system: SK-OV-3 ovarian
[8] = test system: SW-620 colon
[9] = test system: UACC-257 melanoma
[10] = test system: OVCAR-4 ovarian

Cn1cc(C2=C(c3cn(C4CCN(Cc5ccccn5)CC4)c4ccccc34)C(=O)NC2=O)c2ccccc21
GI50 [1]: > 100 µM | TGI [1]: > 100 µM | GI50 [2]: 3.87 µM | TGI [2]: > 100 µM | GI50 [3]: 3.52 µM | TGI [3]: > 100 µM | GI50 [4]: 3.82 µM | TGI [4]: > 100 µM | GI50 [5]: > 100 µM | TGI [5]: > 100 µM | GI50 [6]: 3.49 µM | TGI [6]: > 26.1 µM | GI50 [7]: 5.55 µM | TGI [7]: > 100 µM | GI50 [8]: 4.02 µM | TGI [8]: > 100 µM | GI50 [9]: 4.73 µM | TGI [9]: > 100 µM

CC(=O)N1CCC2(c3ccccc3N(C(C)=O)C2c2ccc(O)cc2)C1C(=O)O (configuration not stated)
TGI [1]: > 100 µM | TGI [2]: > 100 µM | TGI [3]: > 100 µM | TGI [4]: > 100 µM | TGI [5]: > 100 µM | TGI [6]: > 100 µM | TGI [7]: > 100 µM | TGI [8]: > 100 µM | TGI [9]: > 100 µM

CSC1=Nc2ccccc2N=C(c2ccc(Cl)cc2)C1
TGI [2]: > 100 µM | TGI [3]: 67.4 µM | TGI [4]: > 100 µM | TGI [10]: > 100 µM | TGI [5]: > 100 µM | TGI [6]: > 100 µM | TGI [7]: > 100 µM | TGI [8]: > 100 µM | TGI [9]: 84.9 µM

C[N+](C)(C)CC1CCCCC1O (configuration not stated)
TGI [1]: > 100 µM | TGI [3]: > 100 µM | TGI [4]: > 100 µM | TGI [10]: > 100 µM | TGI [5]: > 100 µM | TGI [6]: > 100 µM | TGI [7]: > 100 µM | TGI [8]: > 100 µM | TGI [9]: > 100 µM

O=C(O)c1ccccc1/C=N/N=C1c2ccccc2-c2ccccc21
TGI [2]: > 100 µM | TGI [3]: 71 µM | TGI [4]: 36 µM | TGI [10]: > 100 µM | TGI [5]: > 100 µM | TGI [6]: 61 µM | TGI [7]: > 100 µM | TGI [8]: > 100 µM | TGI [9]: > 100 µM

N/N=C1\C(=O)N(CCc2ccccc2)C(=O)C1C(=O)NCCc1ccccc1 (configuration not stated)
TGI [2]: > 100 µM | TGI [3]: > 100 µM | TGI [4]: > 100 µM | TGI [6]: > 100 µM | TGI [7]: > 100 µM | TGI [8]: > 100 µM | TGI [9]: > 100 µM

NC(=S)NN/C=C(\C=Nc1ccccc1)[N+](=O)[O-]
TGI [2]: > 100 µM | TGI [4]: > 100 µM | TGI [10]: > 100 µM | TGI [5]: > 100 µM | TGI [6]: > 100 µM | TGI [7]: > 100 µM | TGI [8]: > 100 µM | TGI [9]: > 100 µM

COc1cnc2c(c1)C(=O)c1c-2n(CCCN2CCN(C)CC2)c(=O)c2cc([N+](=O)[O-])ccc12
GI50 [1]: 14.6 µM | TGI [1]: 27.7 µM | GI50 [2]: 0.154 µM | TGI [2]: 0.395 µM | GI50 [4]: 0.171 µM | TGI [4]: 0.359 µM | GI50 [10]: 1.46 µM | TGI [10]: 3.31 µM | GI50 [5]: 22.1 µM | TGI [5]: 46.5 µM | GI50 [6]: 0.0698 µM | TGI [6]: 0.483 µM | GI50 [7]: 1.8 µM | TGI [7]: 3.59 µM | GI50 [8]: 0.0227 µM | TGI [8]: 1.38 µM | GI50 [9]: 2.46 µM | TGI [9]: 5.87 µM

COc1ccc(C(=O)c2ccc([As]=O)cc2)cc1 (configuration not stated)
GI50 [1]: 0.113 µM | TGI [1]: 0.246 µM | GI50 [3]: 0.0389 µM | TGI [3]: 0.265 µM | GI50 [4]: 0.0345 µM | TGI [4]: 0.114 µM | GI50 [10]: 0.0454 µM | TGI [10]: 0.182 µM | GI50 [5]: 0.144 µM | TGI [5]: 0.292 µM | GI50 [6]: 0.146 µM | TGI [6]: 0.285 µM | GI50 [7]: 0.181 µM | TGI [7]: 0.346 µM | GI50 [8]: 0.0313 µM | TGI [8]: 0.111 µM

COc1ccc(CN2CCC/C=C/CC(Cl)(Cl)C2=O)cc1
TGI [1]: > 100 µM | TGI [2]: > 100 µM | TGI [3]: 68 µM | TGI [4]: > 100 µM | TGI [10]: 98.8 µM | TGI [5]: > 100 µM | TGI [6]: 68.6 µM | TGI [7]: > 100 µM | TGI [8]: > 100 µM
